Assays:
MM1S-LucNeo cells = experiment: Orthotopic mouse model of multiple myeloma, bioluminescence imaging; type: in vivo; settings: 50 mg/kg PO BID, after 8 days of treatment, p=0.58
Experimental: MM1S-LucNeo cells were created by transducing MM1S cells with a retrovirus encoding the firefly luciferase coding region fused to neomycin phosphotransferase (pMMP-LucNeo). Transduced cells were selected by growth in medium (RPMI, 10% FBS, penicillin/streptomycin) containing G418 at an effective concentration of 1 mg/ml.
NOD-SCID mice (Jackson Laboratory) were sublethally irradiated with 300 rads from a ^137CS source. Three hours after irradiation, a total of 5×10^6 MM1S-LucNeo cells in mid-logarithmic growth phase were injected via tail vein into each mouse in a volume of 300 μL of PBS. Mice were maintained under sterile conditions.
Bioluminescence imaging was performed with a Xenogen In Vivo Imaging System (IVIS 100). Mice were anesthetized by IP injection of ketamine 150 mg/kg and xylazine 12 mg/kg, and simultaneously D-luciferin 50 mg/kg was administered by IP injection. Imaging was performed 15 minutes after D-luciferin injection with a setting of 2 minutes, and a bin setting of 2. Mice were allowed to recover under isothermic conditions. Mice were imaged weekly beginning 2 weeks after tumor inoculation. Mice with increasing tumor burden were divided into 2 statistically equivalent cohorts, and treatment was started 4 weeks after tumor inoculation. […]

BM stromal cells (BMSCs) = experiment: Viability of bone marrow stromal cells (MTT); type: cell-based, human; settings: 0.5 μM
Experimental: Primary MM patient samples were freshly isolated from bone marrow aspirates from patients undergoing diagnostic or restaging bone marrow aspirates under an IRB-approved protocol. MM cells were purified using custom-made RosetteSep cocktail of monoclonal antibodies (mAb's) (StemCell Technologies Inc, Vancouver, Canada) for negative selection of CD138^+ MM cells. The CD138^− fraction of the MM cell purification process was cultured in 20% FBS-supplemented media for isolation of the adherent bone marrow stromal cells. Peripheral blood B cells were isolated by ficoll-density centrifugation of peripheral blood samples from MM patients. […] […] At the end of each treatment, cells were incubated with 1 mg/ml MTT for 4 hours at 37° C.; a mixture of isopropanol and 1N HCl (23:2, v/v) was then added under vigorous pipetting to dissolve the formazan crystals. Dye absorbance (A) in viable cells was measured at 570 nm, with 630 nm as a reference wavelength. Cell survival was estimated as a percentage of the value of untreated controls. All experiments were repeated at least three times, and each experimental condition was repeated at least in quadruplicate wells in each experiment.

peripheral blood B-cells = experiment: Viability of peripheral blood B-cells; type: cell-based, human; settings: 0.5 μM
Experimental: Primary MM patient samples were freshly isolated from bone marrow aspirates from patients undergoing diagnostic or restaging bone marrow aspirates under an IRB-approved protocol. MM cells were purified using custom-made RosetteSep cocktail of monoclonal antibodies (mAb's) (StemCell Technologies Inc, Vancouver, Canada) for negative selection of CD138^+ MM cells. The CD138^− fraction of the MM cell purification process was cultured in 20% FBS-supplemented media for isolation of the adherent bone marrow stromal cells. Peripheral blood B cells were isolated by ficoll-density centrifugation of peripheral blood samples from MM patients.
To assess whether MM cells are more susceptible to inhibition of IGF-1R signaling, than normal cells in their immediate environment, primary MM cells, normal bone marrow stromal cells and peripheral blood B-cells, were exposed to 0.5 μM NVP-AEW541.

SMILES: Nc1ncnc2c1c(-c1cccc(OCc3ccccc3)c1)cn2[C@H]1C[C@@H](CN2CCC2)C1 [NVP-AEW541]
- body weight (MM1S-LucNeo cells): no difference in body weight
- viability of bone marrow stromal cells (BM stromal cells (BMSCs)): no effect on the viability
- viability of peripheral blood B-cells (peripheral blood B-cells): no effect on the viability

Source: US7781393B2, “Methods for inhibiting tumor cell growth” (Dana-Farber Cancer Institute, Inc., priority 2004, dated 2010)
